Measured values as given in US20230348437A1, “COMPOUNDS, COMPOSITIONS AND METHODS” (Denali Therapeutics Inc., priority 2020, published 2023).

System: NLRP3 (IL-1β secretion from THP-1 cells)
Assay: IL-1β secretion assay in 384-well plates, PMA differentiated THP-1 cells, LPS and nigericin stimulation
Format: cell-based
Settings: Homo sapiens; THP-1 cells, PMA 5 ng/mL, LPS 25 ng/mL, nigericin, IL-1β ELISA, 384-well; read-out: Activity
Procedure: Compounds as provided herein were tested in the following assay. […] Freezing medium was made up of 90% FBS and 10% DMSO. THP-1 cells were removed from the liquid nitrogen and placed into a 37° C. water bath to thaw, until signs of ice dissipated. The cells were then added to 9 mL of warm cell culture medium and centrifuged for 5 minutes at 1000 rpm. The supernatant was discarded, and the cells were resuspended in new cell culture medium. The THP-1 cells were then split and cultured in the cell culture medium, being passaged every 2-3 days (5×10^5 cells/mL passaged every two days, 3×10^5 cells/mL passaged every three days). Cell density was maintained between 5×10^5-1.5×10^6 viable cells/mL.
PMA was dissolved in DMSO to make a stock solution at 5 mg/mL and stored in 10 µl aliquots at -20° C. for single use. PMA is added to normal growth medium. LPS was diluted with 1 mL of water solution to provide a 1 mg/mL stock solution and stored in 15 µl aliquots at -20° C. for single use. Nigericin is diluted in ice cold 100% ethanol to 5 mg/mL (6.7 mM) and stored in 75 µL aliquots at -20° C. for single use. […] The two control conditions used to qualify and normalize test compound dose-response curves were as follows: High Control = 25 ng/mL LPS, 5 µM Nigericin, 0.5% DMSO, Low Control = 25 ng/mL, LPS, 0.5% DMSO.
THP-1 cells were diluted to provide a suspension at a concentration of 1.0×10^6 cells/mL with the total volume of suspension required to enable the desired number of assay plates. The growth media was supplemented with PMA (5 ng/mL final concentration) and the cells were incubated at 37° C. under a humidified atmosphere of 5% CO2 for 40 h.
All media was carefully aspirated from each culture flask. The cells were washed carefully with 1x DPBS. The cells were then briefly digested with trypsin LE for 5 minutes at 23° C. and immediately resuspended in cell growth media. After resuspension, the cells were centrifuged at 1000 rpm for 3 minutes and the supernatant was discarded. The cells were resuspended in DPBS and once again centrifuged at 1000 rpm for 5 minutes. The supernatant was discarded and the cell pellet was resuspended in serum-free media supplemented with LPS (25 ng/mL final concentration) to enable the distribution of 30 K THP-1 cells within 45 µL of media into each well of 384-well PDL-coated plates. The 384-well plates were then incubated at 37° C. under a humidified atmosphere of 5% CO2 for 2 h. Following this period, test compounds were dispensed by Tecan across the desired concentration range with all wells normalized to a final 0.5 % DMSO concentration. The plates were then incubated at 37° C. under a humidified atmosphere of 5% CO2 for 1 h. Following this period, 5 µL of the […] nigericin stock solution was added to each of the appropriate wells and plates were centrifuged at 1000 rpm for 30 seconds. The plates were the immediately reintroduced to the incubator at 37° C. under a humidified atmosphere of 5% CO2 for 2 h. After this time, 35 µL/well of supernatant was collected and transferred into v-bottom plate and centrifuged at 1000 rpm for 1 minute. These supernatant aliquots were analyzed using an IL-Iβ detection kit as described below. If needed, the test samples could be snap frozen and stored at -80° C. until analyzed.
To prepare each ELISA plate, capture antibody (mAb Mt175) was diluted with PBS to a final concentration of 2 µg/mL and then 20 µL of this solution was added to each well of the ELISA plate. Each plate was allowed to incubate overnight at 4° C. The next day, the capture antibody solution was removed and discarded. […] Each ELISA plate was then allowed to incubate for 1 hour at 23° C. After this time, the blocking buffer was removed and discarded. Each ELISA plate was washed 4 times with PBST. During this time, the v-bottomed plates containing the supernatant aliquots from the assay run were centrifuged at 300 g for 5 minutes before transferring 15 µL/well of the supernatant sample to each ELISA plate. […]

| SMILES | IC50 |
| --- | --- |
| CC(C)c1nn(CC(=O)N[C@H]2C[C@@](C)(O)C2)c(=O)cc1-c1cc(F)cc(F)c1 [Example 21, 2-[4-(3,5-difluorophenyl)-6-oxo-3-propan-2-ylpyridazin-1-yl]-N-(cis-3-hydroxy-3-methylcyclobutyl)acetamide] | 902 nM |
| Cc1cccc(-c2cc(=O)n(CC(=O)N[C@H]3C[C@@](C)(O)C3)nc2C(C)C)c1F [Example 22, 2-[4-(2-fluoro-3-methylphenyl)-6-oxo-3-propan-2-ylpyridazin-1-yl]-N-(cis-3-hydroxy-3-methylcyclobutyl)acetamide] | 1570 nM |
| Cc1ccc(F)c(-c2cc(=O)n(CC(=O)N[C@H]3C[C@@](C)(O)C3)nc2C(C)C)c1 [Example 23, 2-[4-(2-fluoro-5-methylphenyl)-6-oxo-3-propan-2-ylpyridazin-1-yl]-N-(cis-3-hydroxy-3-methylcyclobutyl)acetamide] | 1890 nM |
| CC(C)c1nn(CC(=O)N[C@H]2C[C@@](C)(O)C2)c(=O)cc1-c1cc(F)ccc1F [Example 24, 2-[4-(2,5-difluorophenyl)-6-oxo-3-propan-2-ylpyridazin-1-yl]-N-(cis-3-hydroxy-3-methylcyclobutyl)acetamide] | 1900 nM |
| CC(C)c1nn(CC(=O)N[C@H]2C[C@@](C)(O)C2)c(=O)cc1-c1cccc(F)c1F [Example 25, 2-[4-(2,3-difluorophenyl)-6-oxo-3-propan-2-ylpyridazin-1-yl]-N-(cis-3-hydroxy-3-methylcyclobutyl)acetamide] | 1820 nM |
| Cc1ccccc1-c1cc(=O)n(CC(=O)N[C@H]2C[C@@](C)(O)C2)nc1C(C)C [Example 26] | 6660 nM |
| CC(C)c1nn(CC(=O)N[C@H]2C[C@@](C)(O)C2)c(=O)cc1-c1cccc(C2CC2)c1 [Example 27, 2-[4-(3-cyclopropylphenyl)-6-oxo-3-propan-2-ylpyridazin-1-yl]-N-(cis-3-hydroxy-3-methylcyclobutyl)acetamide] | 1910 nM |
| CCOc1cccc(-c2cc(=O)n(CC(=O)N[C@H]3C[C@@](C)(O)C3)nc2C(C)C)c1 [Example 28, 2-[4-(3-ethoxyphenyl)-6-oxo-3-propan-2-ylpyridazin-1-yl]-N-(cis-3-hydroxy-3-methylcyclobutyl)acetamide] | 8470 nM |
| CCN1CCC[C@@H](NC(=O)Cn2nc(C(C)C)c(-c3cccc4ccccc34)cc2=O)C1 [Example 29] | 874 nM |
| CCN1CCC[C@@H](NC(=O)Cn2nc(C(C)C)c(-c3cc(F)cc(C4CC4)c3)cc2=O)C1 [Example 30, 2-[4-(3-cyclopropyl-5-fluorophenyl)-6-oxo-3-propan-2-ylpyridazin-1-yl]-N-[(3R)-1-ethylpiperidin-3-yl]acetamide] | 1300 nM |
| CCN1CCC[C@@H](NC(=O)Cn2nc(C(C)C)c(-c3cccc(C4CCC4)c3)cc2=O)C1 [Example 31, 2-[4-(3-cyclobutylphenyl)-6-oxo-3-propan-2-ylpyridazin-1-yl]-N-[(3R)-1-ethylpiperidin-3-yl]acetamide] | 6980 nM |
| CCN1CCC[C@@H](NC(=O)Cn2nc(C(C)C)c(-c3cc(F)cc(F)c3F)cc2=O)C1 [Example 32, N-[(3R)-1-ethylpiperidin-3-yl]-2-[6-oxo-3-propan-2-yl-4-(2,3,5-trifluorophenyl)pyridazin-1-yl]acetamide] | 649 nM |
| CC(C)c1nn(CC(=O)Nc2ncncc2F)c(=O)cc1-c1cccc2ccncc12 [Example 33] | 3210 nM |
| CCOc1nn(CC(=O)N[C@H]2C[C@@](C)(O)C2)c(=O)cc1-c1ccccc1 [Example 34] | 29500 nM |
| CCc1c(-c2cccc(F)c2)c(C(C)C)nn(CC(=O)Nc2ncncc2F)c1=O [Example 35, 2-[5-ethyl-4-(3-fluorophenyl)-6-oxo-3-propan-2-ylpyridazin-1-yl]-N-(5-fluoropyrimidin-4-yl)acetamide] | 35300 nM |
| Cc1c(-c2cccc(F)c2)c(C(C)C)nn(CC(=O)Nc2ncncc2F)c1=O [Example 36, 2-[4-(3-fluorophenyl)-5-methyl-6-oxo-3-propan-2-ylpyridazin-1-yl]-N-(5-fluoropyrimidin-4-yl)acetamide] | 1000 nM |
| CC(C)c1nn(CC(=O)Nc2ncncc2F)c(=O)c(C(F)F)c1-c1cccc(F)c1 [Example 37, 2-[5-(difluoromethyl)-4-(3-fluorophenyl)-6-oxo-3-propan-2-ylpyridazin-1-yl]-N-(5-fluoropyrimidin-4-yl)acetamide] | 30100 nM |
| Cc1c(-c2cc(F)cc(F)c2)c(C(C)C)nn(CC(=O)Nc2ncncc2F)c1=O [Example 38, 2-[4-(3,5-difluorophenyl)-5-methyl-6-oxo-3-propan-2-ylpyridazin-1-yl]-N-(5-fluoropyrimidin-4-yl)acetamide] | 812 nM |
| CC(C)c1nn(CC(=O)N[C@@H]2CCCN(C3CC3)C2)c(=O)cc1-c1cccc(F)c1 [Example 39, N-[(3R)-1-cyclopropylpiperidin-3-yl]-2-[4-(3-fluorophenyl)-6-oxo-3-propan-2-ylpyridazin-1-yl]acetamide] | 490 nM |
| CCN1CCC[C@@H](NC(=O)Cn2nc(C3CCC3)c(-c3cccc(F)c3)cc2=O)C1 [Example 40, 2-[3-cyclobutyl-4-(3-fluorophenyl)-6-oxopyridazin-1-yl]-N-[(3R)-1-ethylpiperidin-3-yl]acetamide] | 1440 nM |
| CC(C)c1nn(CC(=O)Nc2ncccc2F)c(=O)cc1-c1cccc(F)c1 [Example 41, 2-[4-(3-fluorophenyl)-6-oxo-3-propan-2-ylpyridazin-1-yl]-N-(3-fluoropyridin-2-yl)acetamide] | 7210 nM |
| CC(C)c1nn(CC(=O)Nc2ncncc2F)c(=O)cc1-c1cc(F)cc(F)c1 [Example 42, 2-[4-(3,5-difluorophenyl)-6-oxo-3-propan-2-ylpyridazin-1-yl]-N-(5-fluoropyrimidin-4-yl)acetamide] | 320 nM |
| CC(C)c1nn(CC(=O)Nc2ncc(F)cn2)c(=O)cc1-c1cc(F)cc(F)c1 [Example 44] | 236 nM |
| CC(C)c1nn(CC(=O)Nc2ncc(F)cc2F)c(=O)cc1-c1cc(F)cc(F)c1 [Example 45] | 596 nM |
| CC(C)c1nn(CC(=O)Nc2ncncc2F)c(=O)cc1-c1cc(F)cc(Cl)c1 [Example 46, 2-[4-(3-chloro-5-fluorophenyl)-6-oxo-3-propan-2-ylpyridazin-1-yl]-N-(5-fluoropyrimidin-4-yl)acetamide] | 637 nM |
| CC(C)c1nn(CC(=O)Nc2ncncc2F)c(=O)cc1-c1cc(F)cc(C2CC2(F)F)c1 (centres unmarked) [Example 47, 2-[4-[3-(2,2-difluorocyclopropyl)-5-fluorophenyl]-6-oxo-3-propan-2-ylpyridazin-1-yl]-N-(5-fluoropyrimidin-4-yl)acetamide] | 8450 nM |
| O=C(Cn1nc(C2CC2)c(-c2cc(F)cc(F)c2)cc1=O)Nc1ncncc1F [Example 48, 2-[3-cyclopropyl-4-(3,5-difluorophenyl)-6-oxopyridazin-1-yl]-N-(5-fluoropyrimidin-4-yl)acetamide] | 1640 nM |
| O=C(Cn1nc(C2CC2(F)F)c(-c2cc(F)cc(F)c2)cc1=O)Nc1ncncc1F (centres unmarked) [Example 49, 2-[3-(2,2-difluorocyclopropyl)-4-(3,5-difluorophenyl)-6-oxopyridazin-1-yl]-N-(5-fluoropyrimidin-4-yl)acetamide] | 3240 nM |
| O=C(Cn1nc(CC(F)(F)F)c(-c2cc(F)cc(F)c2)cc1=O)Nc1ncncc1F [Example 50, 2-[4-(3,5-difluorophenyl)-6-oxo-3-(2,2,2-trifluoroethyl)pyridazin-1-yl]-N-(5-fluoropyrimidin-4-yl)acetamide] | 1640 nM |
